Reference: ChEMBL document CHEMBL5385872, “Design and syntheses of a bimolecular STING agonist based on the covalent STING antagonist” (Eur J Med Chem, 2023)
Active and inactive are the calls of the source.

What was measured:
[1] = biological target: Stimulator of interferon genes protein (Homo sapiens) (UniProt Q86WV6); test: Induction of STING-dependent gene expression in human HT-1080 cells assessed as IFNbeta mRNA expression at 20 uM incubated for 8 hrs by qRT-PCR analysis; format: cell-based; conditions: filed as agonist
[2] = biological target: T1, Stimulator of interferon genes protein (Mus musculus) (UniProt Q3TBT3); test: Induction of STING dimerization in mouse BMDM cells assessed as dimerization (initially increase and then decreased) at 2.5 to 20 uM measured after 5 hrs by Western blot analysis; format: cell-based; conditions: filed as agonist, dose 2.5-20 µM
T1 sequence (whole entry): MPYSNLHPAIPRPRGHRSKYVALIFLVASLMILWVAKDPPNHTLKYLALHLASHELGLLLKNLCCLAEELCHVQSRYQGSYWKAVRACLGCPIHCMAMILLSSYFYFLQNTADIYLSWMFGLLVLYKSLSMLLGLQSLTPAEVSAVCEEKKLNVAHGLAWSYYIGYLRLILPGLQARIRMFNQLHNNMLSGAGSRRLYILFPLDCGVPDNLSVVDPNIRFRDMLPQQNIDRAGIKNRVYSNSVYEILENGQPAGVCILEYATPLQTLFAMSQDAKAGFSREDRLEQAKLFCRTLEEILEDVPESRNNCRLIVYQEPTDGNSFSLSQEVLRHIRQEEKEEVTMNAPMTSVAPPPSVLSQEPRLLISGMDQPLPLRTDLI

[3] = biological target: T1, Stimulator of interferon genes protein (Mus musculus); test: Agonist activity at STING in mouse BMDM cells assessed as change in TBK1 phosphorylation (initially increase and then decreased) at 20 uM measured after 5 hrs by Western blot analysis; format: cell-based; conditions: filed as agonist
[4] = biological target: T1, Stimulator of interferon genes protein (Mus musculus); test: Induction of STING dimerization in mouse BMDC cells assessed as dimerization (initially increase and then decreased) at 2.5 to 20 uM measured after 5 hrs by Western blot analysis; format: cell-based; conditions: filed as agonist, dose 2.5-20 µM
[5] = biological target: T1, Stimulator of interferon genes protein (Mus musculus); test: Agonist activity at STING in mouse BMDC cells assessed as change in TBK1 phosphorylation (initially increase and then decreased) at 20 uM measured after 5 hrs by Western blot analysis; format: cell-based; conditions: filed as agonist
[6] = biological target: T1, Stimulator of interferon genes protein (Mus musculus); test: Induction of STING-dependent gene expression in mouse BMDC cells assessed as IFNbeta mRNA expression at 20 uM incubated for 8 hrs by qRT-PCR analysis; format: cell-based; conditions: filed as agonist
[7] = biological target: T1, Stimulator of interferon genes protein (Mus musculus); test: Induction of STING-dependent gene expression in mouse BMDC cells assessed as IFNalpha mRNA expression at 20 uM incubated for 8 hrs by qRT-PCR analysis; format: cell-based; conditions: filed as agonist
[8] = biological target: Stimulator of interferon genes protein (Homo sapiens) (UniProt Q86WV6); test: Induction of STING-dependent gene expression in human HT-1080 cells assessed as IFNalpha mRNA expression at 20 uM incubated for 8 hrs by qRT-PCR analysis; format: cell-based; conditions: filed as agonist
[9] = biological target: Stimulator of interferon genes protein (Homo sapiens) (UniProt Q86WV6); test: Induction of oligomerization of STING in HEK-293T cells stably expressing STING-Flag ( unknown origin) measured after 4 hrs by immunoprecipitation assay; format: cell-based; conditions: filed as agonist
Mus musculus [10] = test: Induction of immune-activation effect in wild type female BALB/c mouse assessed as increase in serum IFNbeta level at 15 to 30 mg/kg, ip measured after 24 to 48 hrs by ELISA relative to control; format: functional, organism-based; conditions: dose 15-30 mg/kg, time 24-48 hrs
Mus musculus [11] = test: Induction of immune-activation effect in wild type female BALB/c mouse assessed as increase in serum TNFalpha level at 15 to 30 mg/kg, ip measured after 24 to 48 hrs by ELISA relative to control; format: functional, organism-based; conditions: dose 15-30 mg/kg, time 24-48 hrs
HT-1080 [12] = test: Induction of TBK1 phosphorylation in human HT1080 cells at 20 uM measured after 5 hrs by Western blot analysis; format: functional, cell-based
HT-1080 [13] = test: Induction of TBK1 phosphorylation in STING - knockout human HT1080 cells at 20 uM measured after 5 hrs by Western blot analysis; format: functional, cell-based

Measured: Activity

Stimulator of interferon genes protein (Homo sapiens), sequence (Q86WV6 whole entry): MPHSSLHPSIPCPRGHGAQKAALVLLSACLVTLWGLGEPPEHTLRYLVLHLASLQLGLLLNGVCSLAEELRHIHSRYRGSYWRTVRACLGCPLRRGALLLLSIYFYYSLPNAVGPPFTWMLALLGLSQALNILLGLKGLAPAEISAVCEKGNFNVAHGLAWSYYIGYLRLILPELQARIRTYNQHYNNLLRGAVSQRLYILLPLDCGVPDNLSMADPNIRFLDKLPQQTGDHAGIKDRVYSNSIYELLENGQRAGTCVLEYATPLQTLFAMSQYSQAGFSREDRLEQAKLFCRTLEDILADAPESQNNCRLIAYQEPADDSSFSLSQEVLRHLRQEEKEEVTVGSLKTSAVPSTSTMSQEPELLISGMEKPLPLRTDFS

O=C(NCCCCCCCCNC(=O)c1ccc([N+](=O)[O-])o1)c1ccc([N+](=O)[O-])o1
not listed: HT-1080 [12] | HT-1080 [13]
active: all other assays above

O=C(NCCNCCNC(=O)c1ccc([N+](=O)[O-])s1)c1ccc([N+](=O)[O-])s1
active: HT-1080 [12] | HT-1080 [13]

O=C(NCCCCCCCNC(=O)c1ccc([N+](=O)[O-])o1)c1ccc([N+](=O)[O-])o1
not listed: HT-1080 [12] | HT-1080 [13]
active: all other assays above

O=C(NCCCCCCCCCNC(=O)c1ccc([N+](=O)[O-])o1)c1ccc([N+](=O)[O-])o1
not listed: Mus musculus [10] | Mus musculus [11] | HT-1080 [12] | HT-1080 [13]
active: all other assays above
